Reference: patent US12343335B2, “Pharmaceutical composition for treating multiple sclerosis on basis of AMPK inhibitory function and zinc homeostasis control function” (ZINCURE CORP., priority 2019, dated 2025)

Assays:
[1] = test system: mouse cortical neuron culture; assay: Intrinsic toxicity in cortical neuron culture, LDH cytotoxicity; format: cell-based; settings: 40 μM
Description: (§1) The mouse cortical neurons used in the present invention were extracted from the brain of a mouse embryo, and cultured in Dulbecco's modified Eagle's medium (DMEM, Gibco, Grand Island, NY, US) supplemented with 5% fetal bovine serum (FBS) and 5% horse serum (HS) under the condition of 95% humidity, 5% CO2 and 37° C. For activation and differentiation of the cells, the cells were grown to a density of 2×10^4 cells in a 24-well tissue culture plate and cultured in MEM medium without FBS and HS before treatment with zinc and compounds.
Specifically, 40 μM of each of the drugs was treated in a mouse cortical neuron culture, and LDH cytotoxicity was observed after 24 or 48 hours.

[2] = test system: spinal cord of EAE mice; assay: Immunohistochemistry of spinal cord of EAE mice (CD4, CD8, CD20, IgG leakage); format: in vivo, C57BL/6 female mice
Description: The present inventors induced experimental autoimmune encephalomyelitis (EAE), an animal model of multiple sclerosis, by subcutaneously injecting Myelin oligodendrocyte glycoprotein 35-55 (MOG35-55) peptide antigen into C57BL/6 female mice (FIG. 1A). For this, MOG35-55 (Ana spec, USA) and Complete freund's adjuvant (CFA) were first prepared, and MOG35-55 (2 mg/ml) was dissolved in Phosphate buffered saline (lx PBS, Sigma), and then the 25 ml of CFA was prepared by dispending 25 ml of incomplete freund's adjuvant (IFA. Sigma) in a 50 ml conical tube. Then, in a fume hood, Mycobacterium tuberculosis H37Ra (100 mg; Difco, USA) was added to the IFA in order to prepare CFA and store it in the refrigerator after vortexing before use. Thereafter, MOG35-55 and CFA containing Mycobacterium tuberculosis H37Ra was mixed in the same amount and injected into both flanks of the mice. And then Pertussis toxin (4 μg/ml, List Biological Laboratories, USA) was injected intraperitoneally on the day of immunization and on the second day after immunization. After the immunization, the mice's body weight and clinical symptoms were measured every day, and the degree of EAE progression was evaluated based on specific clinical symptoms. More details on this are provided below.
On the 21st day after EAE induction, the present inventors anesthetized mice with urethane and then perfused 4% paraformaldehyde into the heart to fix the spinal cord. And then, an immunohistochemistry was performed using anti-CD4, anti-CD8, and anti-CD20 antibodies […]. Cryosections were reacted with 3% hydrogen peroxide at room temperature for 15 minutes to remove endogenous peroxidase, and then primary antibodies, rat anti-CD4 (1:50, BD Bioscience, CA, USA), anti-CD8 (1:50, BD Bioscience) and goat anti-CD20 (1:50, SantaCruz Biotechnology, USA) antibodies were reacted for 15 hours at 4° C. Thereafter, biotinylated anti-rat IgG or anti-goat IgG (1:250, Vector Laboratories, USA) was reacted at room temperature for 2 hours. […]

[3] = test system: cultivated neurons; assay: Cytosolic zinc level in cultured neurons with FluoZin-3; format: cell-based, mouse; settings: neurons exposed to zinc (300 μM) for 15 minutes, measured for 60 min
Description: as §1
The present inventors treated FluoZin-3, a substance illuminate fluorescence if it bind to free zinc to cultivated neurons in order to verify the possibility of zinc chelation according to the treatment of 1H10 {(Z)-5-((1H-indol-3-yl)methylene)-2-((3-hydroxyphenyl)amino)thiazol-4(5H)-one} according to an embodiment of the present invention, and then measured cytosolic zinc level in the neurons for 60 min after exposing zinc (300 μM) for 15 minutes and removing the zinc. In addition, 20 μM zinc (ZnCl2) and NewPort Green DCF fluorophore, which emits fluorescence when it bind to zinc, were added to the test tube, and 1H10 of the present invention was treated at various concentrations. Clioquinol, a zinc chelator, and calcium ionophore Phosphorus ionomycin was used as controls. […]

[4] = test system: spinal cord white matter of EAE mice; assay: Zinc staining (TSQ) of spinal cord of EAE mice; format: in vivo, C57BL/6 female mice; settings: day 21 after EAE induction
[5] = test system: neuronal cell death; settings: after stroke; Eom J. W. et al., ACS Chem Neurosci. 2019; cited from earlier work

SMILES: O=C1N=C(Nc2cccc(O)c2)S/C1=C\c1c[nH]c2ccccc12 [1H10, (Z)-5-((1H-indol-3-yl)methylene)-2-((3-hydroxyphenyl)amino)thiazol-4(5H)-one]
- intrinsic toxicity (LDH cytotoxicity) ([1]; after 24 hours of drug treatment): 7.81±2.77%
- intrinsic toxicity (LDH cytotoxicity) ([1]; after 48 hours of drug treatment): 60.72±8.28%
- IgG staining due to damage of BBB ([2]; Sham group (no EAE induction), white or gray matter): not detected
- infiltration of the T and B cells (CD4, CD8, CD20) ([2]; spinal cord white matter, after EAE induction, vs vehicle): significantly inhibited
- IgG infiltration (BBB damage) ([2]; white and gray matter, 3 weeks after MOG injection): significantly reduced
- increase of intracellular zinc level (FluoZin-3) [3]: significantly reduced
- patch-like TSQ abnormal staining (zinc accumulation) [4]: significantly reduced
- neuronal cell death caused by zinc toxicity, excitory toxicity and oxidative damage [5]: reduced
